Tested on: MV4:11 human cancer cell lines
Test: Cellular viability / anti-proliferative activity, CellTiter-Glo, 5 day protocol
Format: cell-based
Settings: Homo sapiens, MV4-11, 120 h, MV4:11 cells; 5 day incubation; CellTiter-Glo; mean of minimum two replicates; read-out: GI50 on cellular proliferation of MV4:11 human cancer cell lines
Method in brief: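 Compounds were tested over 22 two-fold dilutions starting at 30 μM in 0.3% DMSO, with 200 cells per well (7200 cells/mL). Viability was measured by CellTiter-Glo luminescence at day 5.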

Work on Cc1cncc(CN2CCc3c(cc(Cn4ccnc4C)cc3-c3cn(C)nc3C(F)(F)F)C2=O)c1 [Example 157, 7-((2-Methyl-1H-imidazol-1-yl)methyl)-5-(1-methyl-3-(trifluoromethyl)-1H-pyrazol-4-yl)-2-((5-methylpyridin-3-yl)methyl)-3,4-dihydroisoquinolin-1(2H)-one] yielded a GI50 of under 0.05 µM.
CCn1cc(-c2cc(Cn3ccnc3C3CC3)cc3c2CCN([C@@H](C)c2cc(OC)ccn2)C3=O)c(C(F)(F)F)n1 [Example 159, (S)-7-((2-Cyclopropyl-1H-imidazol-1-yl)methyl)-5-(1-ethyl-3-(trifluoromethyl)-1H-pyrazol-4-yl)-2-(1-(4-methoxypyridin-2-yl)ethyl)-3,4-dihydroisoquinolin-1(2H)-one] showed a GI50 of under 0.05 µM.
Compound CCn1cc(-c2cc(Cn3ccnc3)cc3c2CCN([C@@H](C)c2cc(OC)ccn2)C3=O)c(C(F)(F)F)n1 [Example 160, (S)-7-((1H-Imidazol-1-yl)methyl)-5-(1-ethyl-3-(trifluoromethyl)-1H-pyrazol-4-yl)-2-(1-(4-methoxypyridin-2-yl)ethyl)-3,4-dihydroisoquinolin-1(2H)-one] has a GI50 of under 0.05 µM.
CCn1cc(-c2cc(Cn3ccnc3NC)cc3c2CCN([C@@H](C)c2cc(OC)ccn2)C3=O)c(C(F)(F)F)n1 [Example 161, (S)-5-(1-Ethyl-3-(trifluoromethyl)-1H-pyrazol-4-yl)-2-(1-(4-methoxypyridin-2-yl)ethyl)-7-((2-(methylamino)-1H-imidazol-1-yl)methyl)-3,4-dihydroisoquinolin-1(2H)-one] gave a GI50 of under 0.05 µM.
Compound CCn1cc(-c2cc(Cn3ccnc3C(C)C)cc3c2CCN([C@@H](C)c2cc(OC)ccn2)C3=O)c(C(F)(F)F)n1 [Example 162, (S)-5-(1-Ethyl-3-(trifluoromethyl)-1H-pyrazol-4-yl)-7-((2-isopropyl-1H-imidazol-1-yl)methyl)-2-(1-(4-methoxypyridin-2-yl)ethyl)-3,4-dihydroisoquinolin-1(2H)-one] has a GI50 of 13.4 µM.
For Cc1cc([C@H](C)N2CCc3c(cc(Cn4ccnc4C)cc3-c3cn(C)nc3C(F)(F)F)C2=O)ncc1F [Example 163, (S)-2-(1-(5-fluoro-4-methylpyridin-2-yl)ethyl)-7-((2-methyl-1H-imidazol-1-yl)methyl)-5-(1-methyl-3-(trifluoromethyl)-1H-pyrazol-4-yl)-3,4-dihydroisoquinolin-1(2H)-one], the GI50 was under 0.05 µM.
CCc1nccn1Cc1cc2c(c(-c3cn(C)nc3C(F)(F)F)c1)CCN([C@@H](C)c1cc(C)cc(C)n1)C2=O [Example 164, (S)-2-(1-(4,6-Dimethylpyridin-2-yl)ethyl)-7-((2-ethyl-1H-imidazol-1-yl)methyl)-5-(1-methyl-3-(trifluoromethyl)-1H-pyrazol-4-yl)-3,4-dihydroisoquinolin-1(2H)-one] showed a GI50 of 0.057 µM.
Cc1cc(C)nc([C@H](C)N2CCc3c(cc(Cn4ccnc4C)cc3-c3cn(C)nc3C(F)(F)F)C2=O)c1 [Example 165, (S)-2-(1-(4,6-Dimethylpyridin-2-yl)ethyl)-7-((2-methyl-1H-imidazol-1-yl)methyl)-5-(1-methyl-3-(trifluoromethyl)-1H-pyrazol-4-yl)-3,4-dihydroisoquinolin-1(2H)-one] showed a GI50 of under 0.05 µM.
For Cc1cc(C)nc([C@@H](C)N2CCc3c(cc(Cn4ccnc4C)cc3-c3cn(C)nc3C(F)(F)F)C2=O)c1 [Example 166, (R)-2-(1-(4,6-Dimethylpyridin-2-yl)ethyl)-7-((2-methyl-1H-imidazol-1-yl)methyl)-5-(1-methyl-3-(trifluoromethyl)-1H-pyrazol-4-yl)-3,4-dihydroisoquinolin-1(2H)-one], the GI50 was 0.089 µM.
Cc1nccn1Cc1cc2c(c(-c3cn(C)nc3C(F)(F)F)c1)CCN(CC1CCCOC1)C2=O (centres unmarked) [Example 167, 7-((2-Methyl-1H-imidazol-1-yl)methyl)-5-(1-methyl-3-(trifluoromethyl)-1H-pyrazol-4-yl)-2-((tetrahydro-2H-pyran-3-yl)methyl)-3,4-dihydroisoquinolin-1(2H)-one] gave a GI50 of 3.02 µM.
COc1ccnc([C@H](C)N2CCc3c(cc(Cn4ccnc4C)cc3-c3ccc(F)cc3C)C2=O)c1 [Example 168, (S)-5-(4-Fluoro-2-methylphenyl)-2-(1-(4-methoxypyridin-2-yl)ethyl)-7-((2-methyl-1H-imidazol-1-yl)methyl)-3,4-dihydroisoquinolin-1(2H)-one] gave a GI50 of under 0.05 µM.
Compound Cc1nccn1Cc1cc2c(c(-c3cn(C)nc3C(F)(F)F)c1)CCN(CC1CCCCO1)C2=O (centres unmarked) [Example 169, 7-((2-Methyl-1H-imidazol-1-yl)methyl)-5-(1-methyl-3-(trifluoromethyl)-1H-pyrazol-4-yl)-2-((tetrahydro-2H-pyran-2-yl)methyl)-3,4-dihydroisoquinolin-1(2H)-one] has a GI50 of 2 µM.
Cc1nccn1Cc1cc2c(c(-c3cn(C)nc3C(F)(F)F)c1)CCN(Cc1ccc3c(c1)OCO3)C2=O [Example 170, 2-(Benzo[d][1,3]dioxol-5-ylmethyl)-7-((2-methyl-1H-imidazol-1-yl)methyl)-5-(1-methyl-3-(trifluoromethyl)-1H-pyrazol-4-yl)-3,4-dihydroisoquinolin-1(2H)-one] was tested, and the GI50 was 0.835 µM.
Cc1nccn1Cc1cc2c(c(-c3cn(C)nc3C(F)(F)F)c1)CCN(CC1CCCCN1C)C2=O (centres unmarked) [Example 171, 7-((2-Methyl-1H-imidazol-1-yl)methyl)-5-(1-methyl-3-(trifluoromethyl)-1H-pyrazol-4-yl)-2-((1-methylpiperidin-2-yl)methyl)-3,4-dihydroisoquinolin-1(2H)-one] was tested, and the GI50 was 6.9 µM.
Cc1nccn1Cc1cc2c(c(-c3cn(C)nc3C(F)(F)F)c1)CCN(CC1CCC(=O)N(C)C1)C2=O (centres unmarked) [Example 172, 7-((2-Methyl-1H-imidazol-1-yl)methyl)-5-(1-methyl-3-(trifluoromethyl)-1H-pyrazol-4-yl)-2-((1-methyl-6-oxopiperidin-3-yl)methyl)-3,4-dihydroisoquinolin-1(2H)-one] gave a GI50 of 0.221 µM.
Cc1nccn1Cc1cc2c(c(-c3cn(C)nc3C(F)(F)F)c1)CCN(CC1CCOCC1)C2=O [Example 173, 7-((2-Methyl-1H-imidazol-1-yl)methyl)-5-(1-methyl-3-(trifluoromethyl)-1H-pyrazol-4-yl)-2-((tetrahydro-2H-pyran-4-yl)methyl)-3,4-dihydroisoquinolin-1(2H)-one] was tested, and the GI50 was 3.91 µM.
With Cc1nnc(CN2CCc3c(cc(Cn4ccnc4C)cc3-c3cn(C)nc3C(F)(F)F)C2=O)s1 [Example 174, 2-((5-Methyl-1,3,4-thiadiazol-2-yl)methyl)-7-((2-methyl-1H-imidazol-1-yl)methyl)-5-(1-methyl-3-(trifluoromethyl)-1H-pyrazol-4-yl)-3,4-dihydroisoquinolin-1(2H)-one] the GI50 was 0.329 µM.
With CCc1ccnc([C@H](C)N2CCc3c(cc(Cn4ccnc4C)cc3-c3cn(C)nc3C(F)(F)F)C2=O)c1 [Example 175, (S)-2-(1-(4-Ethylpyridin-2-yl)ethyl)-7-((2-methyl-1H-imidazol-1-yl)methyl)-5-(1-methyl-3-(trifluoromethyl)-1H-pyrazol-4-yl)-3,4-dihydroisoquinolin-1(2H)-one] the GI50 was under 0.05 µM.
Cc1nccn1Cc1cc2c(c(-c3cn(C)nc3C(F)(F)F)c1)CCN(Cc1ccc3ccccc3n1)C2=O [Example 176, 7-((2-Methyl-1H-imidazol-1-yl)methyl)-5-(1-methyl-3-(trifluoromethyl)-1H-pyrazol-4-yl)-2-(quinolin-2-ylmethyl)-3,4-dihydroisoquinolin-1(2H)-one] showed a GI50 of 0.293 µM.
With CCn1cc(-c2cc(Cn3ccnc3C)cc3c2CCN([C@H](c2cc(C)ccn2)C2CC2)C3=O)c(C(F)(F)F)n1 [Example 177, (S)-2-(Cyclopropyl(4-methylpyridin-2-yl)methyl)-5-(1-ethyl-3-(trifluoromethyl)-1H-pyrazol-4-yl)-7-((2-methyl-1H-imidazol-1-yl)methyl)-3,4-dihydroisoquinolin-1(2H)-one] the GI50 was under 0.05 µM.
For CCn1cc(-c2cc(Cn3cnc(C)c3C)cc3c2CCN([C@@H](C)c2cc(OC)ccn2)C3=O)c(C(F)(F)F)n1 [Example 178, (S)-7-((4,5-Dimethyl-1H-imidazol-1-yl)methyl)-5-(1-ethyl-3-(trifluoromethyl)-1H-pyrazol-4-yl)-2-(1-(4-methoxypyridin-2-yl)ethyl)-3,4-dihydroisoquinolin-1(2H)-one], the GI50 was 0.152 µM.
CCn1cc(-c2cc(Cn3ccnc3C#N)cc3c2CCN([C@@H](C)c2cc(OC)ccn2)C3=O)c(C(F)(F)F)n1 [Example 179] gave a GI50 of 9.64 µM.
For Cc1nccn1Cc1cc2c(c(-c3cn(C)nc3C(F)(F)F)c1)CCN(Cc1ccccn1)C2=O [Example 180, 7-((2-Methyl-1H-imidazol-1-yl)methyl)-5-(1-methyl-3-(trifluoromethyl)-1H-pyrazol-4-yl)-2-(pyridin-2-ylmethyl)-3,4-dihydroisoquinolin-1(2H)-one], the GI50 was 1.59 µM.
With Cc1cccnc1CN1CCc2c(cc(Cn3ccnc3C)cc2-c2cn(C)nc2C(F)(F)F)C1=O [Example 181, 7-((2-Methyl-1H-imidazol-1-yl)methyl)-5-(1-methyl-3-(trifluoromethyl)-1H-pyrazol-4-yl)-2-((3-methylpyridin-2-yl)methyl)-3,4-dihydroisoquinolin-1(2H)-one] the GI50 was 3.46 µM.
Cc1ccnc([C@H](C2CC2)N2CCc3c(cc(Cn4ccnc4)cc3-c3ccc(F)cc3C)C2=O)c1 [Example 184, (S)-7-((1H-Imidazol-1-yl)methyl)-2-(cyclopropyl(4-methylpyridin-2-yl)methyl)-5-(4-fluoro-2-methylphenyl)-3,4-dihydroisoquinolin-1(2H)-one] gave a GI50 of 0.125 µM.
Cc1cc([C@H](C)N2CCc3c(cc(Cn4ccnc4)cc3-c3cn(C)nc3C(F)(F)F)C2=O)ncc1F [Example 185, (S)-7-((1H-Imidazol-1-yl)methyl)-2-(1-(5-fluoro-4-methylpyridin-2-yl)ethyl)-5-(1-methyl-3-(trifluoromethyl)-1H-pyrazol-4-yl)-3,4-dihydroisoquinolin-1(2H)-one] gave a GI50 of under 0.05 µM.

Source: patent US11999716B2, “WDR5 inhibitors and modulators” (priority 2018, dated 2024)
